Consider eight compounds from patent US20150322082A1, “NOVEL COMPOUNDS AS DIACYLGLYCEROL ACYLTRANSFERASE INHIBITORS” (GLAXOSMITHKLINE LLC, priority 2012, published 2015).

Series [1] has as its target T1, Human DGAT1 (Homo sapiens, UniProt O75907).
T1 construct: made in house; host or cells: Sf9 insect cells (baculovirus); microsomes
T1 sequence (O75907 1-488): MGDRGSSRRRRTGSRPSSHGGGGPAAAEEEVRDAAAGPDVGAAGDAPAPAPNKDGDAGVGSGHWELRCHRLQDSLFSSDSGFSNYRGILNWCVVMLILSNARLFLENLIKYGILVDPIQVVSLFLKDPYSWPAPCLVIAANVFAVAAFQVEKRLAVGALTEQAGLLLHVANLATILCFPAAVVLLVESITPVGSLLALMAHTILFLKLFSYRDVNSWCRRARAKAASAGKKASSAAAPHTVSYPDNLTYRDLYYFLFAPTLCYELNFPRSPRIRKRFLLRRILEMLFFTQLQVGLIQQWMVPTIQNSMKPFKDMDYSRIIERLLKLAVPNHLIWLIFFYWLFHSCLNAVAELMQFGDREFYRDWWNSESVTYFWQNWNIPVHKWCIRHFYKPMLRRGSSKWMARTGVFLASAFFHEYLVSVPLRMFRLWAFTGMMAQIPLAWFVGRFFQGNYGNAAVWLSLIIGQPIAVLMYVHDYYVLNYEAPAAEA
As to the kind of experiment: Human DGAT1 lipid extraction (LE) assay, inhibition of triacylglycerol product formation. Type of series: biochemical. To be noted: human DGAT1 microsomes from Sf9 cells, read-out: hDGAT LE IC50. On the procedure: Human DGAT1 was expressed in Sf9 insect cells using a baculovirus expression system. Microsomes were prepared and used as enzyme for in vitro inhibition testing in either of two formats measuring production of coenzyme A or tridecanoylglycerol product, respectively. All steps were performed at 21-23° C. All data for DGAT1 inhibition by test compounds were collected under conditions where product formation was linear with reaction time.
Some assays were performed with inclusion of didecanoylglycerol in the pre-reaction incubation of test compounds and enzyme. […] Extraction of tridecanoylglycerol product was accomplished via addition of 30 uL Microscint-E (Perkin Elmer) and 2 hours of incubation (sealed). Plates were read on a Microbeta Microplate reader. Inhibition was normalized to controls containing DMSO or 10 uM {4-[4-(4-amino-7,7-dimethyl-7H-pyrimido[4,5-b][1,4]oxazin-6-yl)phenyl]cyclohexyl}acetic acid. IC50s were fitted using GraphPad Prism to a sigmoidal dose response.

Series [2] is described as follows: Pharmacokinetic assay in rats (Rat IV and PO PK). Type of series: in vivo. The settings on record: male, Crl:CD (SD), plasma; for bioavailability: 2 mg/kg, absolute oral bioavailability from oral and intravenous AUC0-inf, normalized for dose, read-out: Rat % F. On the procedure:
Pharmacokinetic Assay in Rats (Rat IV and PO PK)
Male Crl:CD (SD) rats were housed individually in cages with clean bedding in a controlled environment (22 to 25° C. temperature, humidity of 30-70% RH, and a 12 hour light/12 hour dark cycle). Certified rodent diet was provided ad libitum to the rats. Rats were fasted overnight 14-16 hours prior to the dosing on each study day and fed approximately 4 hours post dose (following collection of the 4 hour blood sample). Water was available ad libitum. Normal healthy rats certified by the attending veterinarian were selected and acclimatized for a minimum of three days prior to initiation of the study. Rats were randomized according to the body weight and were identified with body markings.
Intravenous formulation of 1 mg/mL concentration was prepared in DMA (N,N-Dimethylacetamide):TEG (Tetraethylene glycol): Water for Injection (20:40:40) freshly on study day. Animals were dosed through tail vein to achieve a target dose of 1 mg/kg. Oral suspension at a target concentration of 2 mg/mL was prepared freshly in Tween 80 (2%) and 0.5% MC (Methylcellulose) (2:98) on the study day. Animals in the intravenous dosing group were dosed through tail vein to achieve a target dose of 1 mg/kg, and the animals in oral dosing group were dosed orally by an oral gavage needle to achieve a target dose of 2 mg/kg. The actual dose volume was based on the body weight obtained on the study day. On the study day, blood samples (approx. 300 μL/time point) were collected at 0.083, 0.25, 0.5, 1, 2, 4, 8 and 24 hours after intravenous bolus dose, and 0.25, 0.5, 1, 2, 4, 8 and 24 hours after dosing of oral gavage and transferred to a pre-labeled K2EDTA coated tubes. Blood volume was replaced with administration of equal volume of saline through the jugular vein. After collection of blood samples at each time point, the blood samples were stored immediately on ice, in chilled Cryoracks and centrifuged at 2320 g at 4° C. for 15 minutes. The plasma was separated and transferred to pre-labeled micro-centrifuge tubes and promptly frozen at −80+10° C. until bioanalysis.
The plasma concentrations were determined by using a fit for purpose analytical method based on protein precipitation, followed by LC-MS/MS analysis. Analyst Version 1.5.1 software was used to acquire and quantify data. Pharmacokinetic analysis of plasma concentration-time data was performed by a non-compartmental method using Pheonix WinNonLin™ (WLN) Version 6.3.
The area under the plasma concentration-time curve (AUC) from the time of dosing to the last quantifiable time point (AUC0-1) was determined by WLN using linear logarithmic trapezoidal rule. Terminal half life (T1/2) was determined by WLN using linear logarithmic trapezoidal rule for plasma concentrations following intravenous administration. The Absolute oral bioavailability (% F) was calculated by mathematical comparison of oral and intravenous AUC0-inf, normalized for dose.

The mark [3] stands for this setting: intravenous (tail vein), target dose 1 mg/kg, read-out: Rat IV AUC.
Where [4] appears, read: oral gavage, target dose 2 mg/kg, read-out: Rat PO AUC.

Molecules are shown by their SMILES. Read-outs that look alike come from different tables or passages of the source.

Consider `Cc1cnc(-n2ccc3cc(N4CCOc5ncnc(N)c5C4=O)cc(C4CC4)c32)nc1` [Example 37, 4-Amino-6-(7-cyclopropyl-1-(5-methylpyrimidin-2-yl)-1H-indol-5-yl)-7,8-dihydropyrimido[5,4-f][1,4]oxazepin-5(6H)-one], for which, in series [1], the 50% inhibitory concentration (IC50) (in general, the point on the concentration scale where inhibition reaches its midpoint) is 11.7 nM. Also, the AUC – broadly, the area under the concentration-time curve, a measure of exposure – in series [2] (setting [3]) stood at 11700 ng·h/mL; in series [2] (setting [4]), 11600 ng·h/mL. Also, in series [2], the bioavailability came to 54.6%.
On to `CC(C)(O)c1ccc(-n2ccc3cc(N4CCOc5ncnc(N)c5C4=O)ccc32)cn1` [Example 38, 4-Amino-6-(1-(6-(2-hydroxypropan-2-yl)pyridin-3-yl)-1H-indol-5-yl)-7,8-dihydropyrimido[5,4-f][1,4]oxazepin-5(6H)-one], for which the IC50 in series [1] stood at 29 nM. Also, the AUC came to 2140 ng·h/mL in series [2] (setting [3]) and 4020 ng·h/mL in series [2] (setting [4]). The bioavailability in series [2] is 89%.
In the case of `COC(C)(C)Cn1ccc2cc(N3CCOc4ncnc(N)c4C3=O)ccc21` [Example 39, 4-amino-6-(1-(2-methoxy-2-methylpropyl)-1H-indol-5-yl)-7,8-dihydropyrimido[5,4-f][1,4]oxazepin-5(6H)-one], the IC50 in series [1] worked out at 42.3 nM.
Still for that read-out and setting: under `CC(C)(O)Cn1ccc2cc(N3CCOc4ncnc(N)c4C3=O)cc(C3CC3)c21` [Example 40, 4-amino-6-(7-cyclopropyl-1-(2-hydroxy-2-methylpropyl)-1H-indol-5-yl)-7,8-dihydropyrimido[5,4-f][1,4]oxazepin-5(6H)-one] stands 7.5 nM.
The same measure, in the same setting: as for `CCOc1ncc(-n2ccc3cc(N4CCOc5ncnc(N)c5C4=O)ccc32)cn1` [Example 41], the figure is 23.8 nM.
Take `Nc1ncnc2c1C(=O)N(c1ccc3c(ccn3-c3ccc(C(F)(F)F)nc3)c1)CCO2` [WO12/162129, Ex 83, 4-amino-6-(1-(6-(trifluoromethyl)pyridin-3-yl)-1H-indol-5-yl)-7,8-dihydropyrimido[5,4-f][1,4]oxazepin-5(6H)-one]: the AUC turned out to be 3380 ng·h/mL in series [2] (setting [3]) and 3860 ng·h/mL in series [2] (setting [4]). Further, the bioavailability in series [2] came to 30.4%.
For `Nc1ncnc2c1C(=O)N(c1ccc3c(ccn3-c3ccc(C(F)(F)F)cn3)c1)CCO2` [WO12/162129, Ex 88, 4-amino-6-(1-(5-(trifluoromethyl)pyridin-2-yl)-1H-indol-5-yl)-7,8-dihydropyrimido[5,4-f][1,4]oxazepin-5(6H)-one], the AUC in series [2] (setting [3]) turned out to be 3780 ng·h/mL; in series [2] (setting [4]) it was 1780 ng·h/mL. Also, the bioavailability in series [2] came out at 12.5%.
The matching figures for `Cc1ccc(-n2ccc3cc(N4CCOc5ncnc(N)c5C4=O)ccc32)cn1` [WO12/162129, Ex 102, 4-amino-6-(1-(6-methylpyridin-3-yl)-1H-indol-5-yl)-7,8-dihydropyrimido[5,4-f][1,4]oxazepin-5(6H)-one]: 975 ng·h/mL, 2490 ng·h/mL and 65.6%.
